Laboratory results taken from US20160280789A1, “METHODS FOR TREATING HEMATOLOGICAL MALIGNANCIES” (CHILDREN'S HOSPITAL LOS ANGELES, priority 2013, published 2016).
“Also recorded” adds a separate entry of the source. Read-outs that look alike come from different tables or passages of the source.

What was measured:
[1] = test system: ITGA6fl/fl BCR/ABL1+ pre-B ALL cells; assay: In vivo model of BCR-ABL1-transformed ITGA6fl/fl ALL in NOD/SCID mice, survival with Nilotinib; set-up: species or system mouse
Procedure: A, Bioluminescence imaging was performed at indicated days post-ALL cells injection. […] C, D ITGA6 deletion was confirmed by FACS in BM cells of mice sacrificed at time of death of leukemia. E, Residual leukemia cells were determined in spleen and bone marrow by RT-PCR and F, PCR in the groups EmptyER^T2+Nilotinib and CreER^T2+Nilotinib.
Bone marrow cells from ITGA6fl/fl mice (Georges-Labouesse et al.) mice were harvested and retrovirally transformed by BCR-ABL1 (Pear et al.) in the presence of 10 ng IL7 (Peprotech) in Retronectin-(Takara) coated plates. All BCR-ABL1-transformed ALL cells derived from bone marrow of mice were maintained in Iscove's modified Dulbecco's medium (IMDM) with GlutaMAX containing 20% fetal bovine serum (Atlanta Biologica), 100 IU/ml penicillin, 100 μg/ml streptomycin (Invitrogen), and 50 μM 2-mercaptoethanol (Sigma-Aldrich) at 37° C. in a humidified incubator with 5% CO2. After cytokine-independent proliferation, BCR-ABL1 transformed ITGA6fl/fl cells were transduced retrovirally with EmptyERT2 or CreERT2. […] D-Luciferin (Promega) dissolved in PBS was injected intraperitoneally at a dose of 2.5 mg per mouse 15 minutes before measuring the luminescence signal. […] Mice were monitored for weight loss and other leukemia symptoms. Moribund mice were sacrificed and tissues were analyzed for leukemia cell infiltration to confirm leukemia as the cause of death.
To determine the effect of VLA6 deletion on leukemia progression in vivo, ITGA6 competent ITGA6fl/fl BCR/ABL1+ pre-B (B220+CD19+) CreERT2+ or control transduced ALL cells were lentivirally luciferase labeled and transferred into NOD/SCID mice (FIG. 6A). […] For this purpose, splenic cells and bone marrow cells of leukemia recipient animals were isolated and analyzed for BCR-ABL1 mRNA expression by RT-PCR (FIG. 6E) and BCR-ABL1 expression in genomic DNA by PCR (FIG. 6F).

[2] = test system: BCR-ABL-1+ ITGA6fl/fl cells; assay: cells; details: Mus musculus, 72 h
Procedure: Viability of CreER^T2 and EmptyER^T2 ITGA6^f/f BCR-ABL1^+ CreER^T2 and EmptyER^T2 cells were plated onto tissue culture plates (no further ligand coated) and treated with Tamoxifen (1.5 μM) and Nilotinib (0.02 μM or 0.2 μM) for 1 to 3 days. Cell viability was determined by trypan blue exclusion. Y axis indicates cell viability relative to initial.
Bone marrow cells from ITGA6fl/fl mice (Georges-Labouesse et al.) mice were harvested and retrovirally transformed by BCR-ABL1 (Pear et al.) in the presence of 10 ng IL7 (Peprotech) in Retronectin-(Takara) coated plates. All BCR-ABL1-transformed ALL cells derived from bone marrow of mice were maintained in Iscove's modified Dulbecco's medium (IMDM) with GlutaMAX containing 20% fetal bovine serum (Atlanta Biologica), 100 IU/ml penicillin, 100 μg/ml streptomycin (Invitrogen), and 50 μM 2-mercaptoethanol (Sigma-Aldrich) at 37° C. in a humidified incubator with 5% CO2. After cytokine-independent proliferation, BCR-ABL1 transformed ITGA6fl/fl cells were transduced retrovirally with EmptyERT2 or CreERT2. […] After 1 μg/ml puromycin selection, VLA6 deletion was induced in vitro by addition of 1.0 μM tamoxifen (Sigma-Aldrich). […]

## Cc1cn(-c2cc(NC(=O)c3ccc(C)c(Nc4nccc(-c5cccnc5)n4)c3)cc(C(F)(F)F)c2)cn1 [Nilotinib]
[1]; n=5, Tamoxifen-induced in vivo deletion
  Median survival time (MST), CreERT2 (ITGA6 deleted) leukemia: survived; also recorded: undefined
[1]; n=6, days post-leukemia injection
  Median survival time (MST), EmptyERT2 (ITGA6 competent) leukemia: 39.5 days
[2]; read-out: Viability of leukemia cells, CreERT2 (ITGA6 deleted)
  viability at 0.02 µM: 10.2%
[2]; read-out: Viability of leukemia cells, EmptyERT2 (ITGA6 competent)
  viability at 0.02 µM: 83.7%
